Source: patent US20260193668A1, “NOVEL PEPTIDES AND USE THEREOF FOR MODULATING PROTEIN ACCUMULATION” (UNIVERSITE TOULOUSE III - PAUL SABATIER, priority 2022, published 2026)

These substances were tested on Aphanomyces euteiches (assay: M. truncatula seedlings infected with A. euteiches). Details: 100 μM peptide.
Type: in vivo
Source text: (§1) (a) FRET-FLIM analysis of the interaction between cPEPnsp1-FAM and NSP1 (left) or NSP1ΔcPEP (right) in planta. (b) qRT-PCR quantification of NSP1 expression in M. truncatula roots treated with cPEPnsp1 or Scrambled cPEPnsp1. (c) GUS quantification of peptide-treated M. truncatula roots carrying the Pro NSP1-NSP1-GUS fusion. (d, e) Quantification of NSP1 expression in N. benthamiana leaves after infiltration of different constructs: ‘wild type’ i.e. version of NSP1 wherein the cPEP sequence has been deleted (NSP1 ΔcPEP) or version of NSP1 wherein the cPEP sequence has been replaced by an artificial sequence (NSP1 ΔcPEP-cPEPartificial), with an empty vector (control) or cPEPnsp1 or cPEPartificial. (f, g) Formation of lateral roots of M. truncatula WT seedlings, nsp1 or overexpressing NSP1, in response to cPEPnsp1 or Scrambled cPEPnsp1. (h, i) Quantification of nodules on roots of M. truncatula roots treated with an irrelevant peptide or cPEPskl. (j) Root development of M. truncatula seedlings infected with A. euteiches and treated with an irrelevant peptide or cPEPrh10. (k) Relative expression of A. euteiches α-tubulin in M. truncatula seedlings infected with A. euteiches and treated with an irrelevant peptide or cPEPrh10.
Quantification of mRNAs was performed by qRT-PCR using appropriate primer pairs selected from the sequences: SEQ ID NOs: 367 to 374. […]

Substance | root development (resistance to the pathogen)
SEQ ID NO: 412 (QRLSLRNPLK; cPEPrh10) | increased

Same assay, conditions: 100 μM peptide, 7 days after inoculation

Substance | expression of A. euteiches α-tubulin in roots
SEQ ID NO: 412 (QRLSLRNPLK; cPEPrh10) | decreased

What follows are substances tested on luciferase mRNA (assay: RNA-IP followed by PCR on plants treated with HA-tagged peptides). Details: anti-HA magnetic beads.
Type: binding, Arabidopsis thaliana
Source text: Analysis of luciferase expression in A. thaliana constitutively expressing the LUC transgene. (a) Agarose gel after PCR amplification of RNA obtained by immunoprecipitation using anti-HA magnetic beads, followed by RT-PCR, on plants treated with the indicated peptide (SC-HA: Scrambled cPEPluc-HA; Luc-HA: cPEPluc-HA). (b) Relative expression of the luciferase transgene in plants treated with the indicated peptide, quantified by RT-qPCR. (c-e) Relative quantification of LUC in plants treated with the indicated peptide. (f, g) Ratio between induction and quantification of LUC in plants treated with cPEPluc compared to plants treated with Scrambled cPEPluc, using different peptide concentrations (f) or taken at different time points (g). (h) Transcriptomic analysis of plants treated with cPEPluc-HA compared to plants treated with Scrambled cPEPluc-HA. (i) Proteomic analysis of plants treated with cPEPluc-HA compared to plants treated with Scrambled cPEPluc-HA. Protein expression was analysed by Western blots and quantified using ImageJ.
RNA co-immunoprecipitation was adapted from Merret et al. (Plant Physiol. 174:1216-1225. 2017). 400 mg of tissue powder was incubated in 3 mL of lysis buffer (200 mM Tris, pH 9.0, 110 mM potassium acetate, 0.5% Triton X-100, 0.1% Tween© 20, 5 mM DTT, 1.5% protease inhibitor and 80 units·ml-1 RNasin). […]

Substance | interaction with luciferase mRNA (RNA-IP followed by PCR)
SEQ ID NO: 386: Scrambled peptide corresponding to HA-tagged cPEPluc (RNYKNGRTHLYPYDVPDYA; Scrambled cPEPluc-HA) [reference compound] | could not
cPEPluc-HA: HA-tagged cPEPluc (KRYGLNTNHRYPYDVPDYA; cPEPluc-HA) | able to interact

What follows are substances tested on A. thaliana seedlings (assay: Relative chlorophyll content of A. thaliana). Details: sprayed with 10 μM peptide three times a week.
Type: in vivo, Arabidopsis thaliana
Protocol: (§2) (a, b) Length of primary roots of A. thaliana seedlings treated with a Scrambled cPEPdcl1 or with a cPEPdcl1. (c) Relative chlorophyll content of A. thaliana seedlings treated with the corresponding peptide. (d) Resumption of growth of A. thaliana seedlings after heat shock at 45° C. for 45 min and treated with the corresponding peptide. (e) Relative lesion area of A. thaliana seedlings infected with B. cinerea and treated with the indicated peptide. (f) Measurement of the flowering day of A. thaliana plants treated with the indicated peptides. (g, h) Flowering day of A. thaliana plants treated with an irrelevant peptide or a mixture of cPEPs (targeting EIN2, BR11, BAK1 and WUS). (i, j) Leaf area of A. thaliana plants treated with an irrelevant peptide or a mixture of cPEPs (targeting EIN2, BR11, BAK1 and WUS).
N. benthamiana plants were treated by spraying the leaves 24 h before harvesting. For Luc assays, 100 μL of MS/2 liquid medium containing the peptides was added to each well. 5 μL of luciferin was added and luciferase activity was read 30 min later using a spectrophotometer. […] To quantify the protein level induced by cPEPs in Arabidopsis, rosettes were sprayed daily with 100 μM of peptide or its control for 5 days. […] Chlorophyll content was measured using the SPAD chlorophylometer (Konica Minolta). Leaf area was measured using ImageJ software. […]

Substance | chlorophyll content
SEQ ID NO: 406 (EKVVERRQRR; cPEPabi5) | decreasing
SEQ ID NO: 407 (EWKKVKGKMS; cPEPsgr1) | increasing

These substances were tested on A. thaliana plants (assay: Flowering day of A. thaliana plants). Details: sprayed with 10 μM peptide three times a week until flowering.
Type: in vivo, Arabidopsis thaliana
Protocol: as §2
N. benthamiana plants were treated by spraying the leaves 24 h before harvesting. For Luc assays, 100 μL of MS/2 liquid medium containing the peptides was added to each well. 5 μL of luciferin was added and luciferase activity was read 30 min later using a spectrophotometer. All other assays were performed by spraying or watering the plants. To quantify the protein level induced by cPEPs in Arabidopsis, rosettes were sprayed daily with 100 μM of peptide or its control for 5 days. Leaves were harvested 6 h after the last treatment for western blot analysis. For the flowering assay and chlorophyll content, 10-day-old Arabidopsis plants were sprayed with 500 μL of 10 μM peptide three times a week until flowering. Chlorophyll content was measured using the SPAD chlorophylometer (Konica Minolta). Leaf area was measured using ImageJ software. Barbarea vulgaris and A. hypochondriacus seedlings were treated immediately after sowing and 3 times a week with 500 μL of a 20 μM mixture of each peptide. For western blotting, a heat shock was performed by placing 20-day-old plants grown in 24-well plates on MS/2 for 90 min at 37° C. before harvesting. The plants were treated with 100 μM of peptide for 24 h. For the heat shock resistance test on A. thaliana, 3-day-old seedlings were treated for three days with 100 μM of peptide before placing the plants at 45° C. for 45 min. The plants were placed in a growth chamber to recover and treated 24 h after heat shock with 100 μM of peptide. For soybean heat shock, one-week-old seedlings were treated for 48 h, 24 h and 30 min before being placed at 45° C. for 24 h. For soybean growth, seedlings were treated 3 times a week for a fortnight with 500 μL of 100 μM peptide.

Substance | plant development, measured by the day of flowering
SEQ ID NO: 185 (VERRETPSGE; cPEPhag5) | decrease
SEQ ID NO: 186 (HGEARDSEEV; cPEPshr) | decrease
SEQ ID NO: 199 (ARGLAYLHE; AhBAK1) | decrease
SEQ ID NO: 198 (RHRNLVRLQG; AhBRI1) | decrease
SEQ ID NO: 183 (SDFSSKYRED; cPEPga2ox7) | decrease
SEQ ID NO: 181 (NKGKTVEGWR; cPEPtap46) | decrease
SEQ ID NO: 184 (LRETDLKDRR; cPEPphyb) | decrease
cPEPmrb1 (NSEITKTAND; cPEPmrb1) [SEQ ID NO: 180] | increased
cPEPshy2 (EENRSELLQR; cPEPshy2) [SEQ ID NO: 178] | increased
cPEPwus (RWTPTTEQIK; cPEPwus) [SEQ ID NO: 196] | decrease
SEQ ID NO: 204 (NPVERSRHRD; cPEPein2_1) | decrease
SEQ ID NO: 182 (ASGNETDEYD; cPEPspt) | decrease

Each substance was assayed on M. truncatula seedlings (assay: Formation of lateral roots of M. truncatula seedlings). Details: M. truncatula WT seedlings.
Type: in vivo, Medicago truncatula
Source text: as §1, with “(j) Root development of M. truncatula seedlings infected with A. euteiches and treated with an irrelevant peptide or cPEPrh10. (k) Relative expression of A. euteiches α-tubulin in M. truncatula seedlings infected with A. euteiches and treated with an irrelevant peptide or cPEPrh10.” left out
In order to verify whether cPEPs can target any protein, the activity of 12 cPEPs targeting 12 different proteins for which antibodies were available was studied and validated in three different plant species. The question was whether the increase in the quantity of proteins observed after treatment with cPEP was sufficient to modulate plant development. […]

Substance | amount of lateral roots
cPEPnsp1 (DYGTKSNIRS; cPEPnsp1_3) | decreased

Same assay, conditions: nsp1 mutant and NSP1-overexpressing M. truncatula

Substance | sensitivity of lateral root formation to the peptide
cPEPnsp1 (DYGTKSNIRS; cPEPnsp1_3) | insensitive

These substances were tested on Botrytis cinerea (assay: Infection assay of A. thaliana leaves inoculated with B. cinerea). Details: 100 μM peptide, compared with plants treated with an irrelevant peptide.
Type: in vivo
Protocol: as §2
(a) Quantification of CPK3 expression, using CPK3 antibodies, in peptide-treated A. thaliana plants. (b-c) Infection assay of peptide-treated A. thaliana leaves inoculated with B. cinerea spores.
Wild-type or mutant A. thaliana leaves were sprayed daily with 100 μM of peptide or 100 μM of the corresponding scramble version for 3 days. Six hours after the last treatment, five mature leaves per plant were inoculated with a 5 μL droplet of 2.5×10^5 spores/mL of Botrytis cinerea strain B05.10 diluted in 100 μM of peptide or its corresponding scramble version. After inoculation, plants were maintained at 100% relative humidity. Then, a 2 μL droplet of 100 μM of peptide or 100 μM of the corresponding scramble version was deposited daily on B. cinerea-infected leaves for 3 days (until symptoms appeared). Leaves were removed from the plants to determine lesion areas using the ImageJ programme. For tomato, the protocol was the same except that inoculation was carried out with 5,000 B. cinerea spores, without peptides. Peptides were added 1 h after inoculation (1 μL of 500 μM) and each day for two days with 5 μL of 100 μM peptide. For infection of M. truncatula with A. euteiches, plants were grown on agar medium and treated with 10 μL of 100 μM peptide, 24 h before, 24 h and 72 h after infection with 10 μL (1000 spores) of A. euteiches spores. Plants were harvested 7 days after inoculation for RNA extraction.

Substance | lesion size (plant defence against Botrytis cinerea)
SEQ ID NO: 187 (KEPEQRKRKS; cPEPmapkkk3) | decrease
SEQ ID NO: 162 (RSSKTELWTR; cPEPcpk3) | decrease
SEQ ID NO: 195 (IRLDTGEEPD; cPEPagb1) | decrease
cPEPjar1 (PETNFERDSS; cPEPjar1) [SEQ ID NO: 192, cPEP targeting the A. thaliana plant defence regulator JAR1] | decrease
SEQ ID NO: 194 (ERKFRLHKSP; cPEPabcg34) | decrease
SEQ ID NO: 188 (PLTGGRRDSK; cPEPmapkkk5_1) | decrease
